Data reported in US12133900B2, “Synthesis and composition of amino acid linking groups conjugated to compounds used for the targeted imaging of tumors” (Purdue Research Foundation, priority 2013, dated 2024).
“Also recorded” adds a separate entry of the source.

Experiments:
[1] = test system: FR-positive IGROV tumor xenografts; assay: Imaging and biodistribution, IGROV ovarian xenograft; type: in vivo, mice; conditions: 2 nmol, 2 h
Protocol: Seven-week-old female nu/nu mice were inoculated subcutaneously with KB (1.0×10^6/mouse in RPM11640 medium), IGROV (5.0×10^6/mouse in 50% high concentrated matrigel+RPM11640 medium), SKOV3 (5.0×10^6/mouse in RPM11640 medium), OVCAR3 (5.0×10^6/mouse in RPM11640 medium), MDA-MB231 (1.0×10^6/mouse in RPM11640 medium), M109 (1.0×10^6/mouse in RPM11640 medium) or A549 cells (2.0×10^6/mouse in RPM11640 medium) on the shoulder. Growth of the tumors was measured in perpendicular directions every 2 days using a caliper (body weights were monitored on the same schedule), and the volumes of the tumors were calculated as 0.5×L×W^2 (L=longest axis and W=axis perpendicular to L in millimeters). Once tumors reached approximately 300-400 mm3 in volume, animals (3-5 mice/group) were intravenously injected with the compound of interest in PBS (for dose escalation in KB tumor model: 0.3-90 nmol, for time dependent in KB tumor model: 2 or 10 nmol, and for general whole body imaging and biodistribution for all tumor models: 2 nmol, in 100 μL in PBS per mouse). For whole body imaging and biodistribution studies, animals were euthanized 2 hours after administration of the compound of interest by CO2 asphyxiation. For time dependent studies, animals were imaged under anesthesia using isoflurane. Whole body imaging (intact tumor) experiments was then performed using a Caliper IVIS Lumina II Imaging Station with Living Image 4.0 software (PerkinElmer Inc, MA).
Following whole body imaging, animals were dissected and selected tissues (heart, lung, liver, spleen, kidneys, stomach, small intestine, large intestine, muscle, skin, and tumor) were analyzed for fluorescence activity using IVIS imager using same settings as in whole body imaging.

[2] = test system: folate receptor positive KB tumor xenografts; assay: Whole body imaging and tissue biodistribution, KB tumor xenografts; type: in vivo, mice; conditions: for tumor uptake: 0.3 nmol dose i.v.; for non-specific uptake: 60 and 90 nmol doses i.v.
Protocol: (§1) Seven-week-old female nu/nu mice were inoculated subcutaneously with KB cells (1.0×10^6/mouse in folate free RPM11640 medium) on the shoulder. […] […] Whole body imaging (intact tumor) experiments were then performed using a Caliper IVIS Lumina II Imaging Station with Living Image 4.0 software (PerkinElmer Inc, MA). Settings for imaging:—lamp level: medium; excitation: 745 nm; emission: 830 nm; epi illumination; binning: 4 (M), FOV=12.5; f-stop=2; acquisition time=1 s.
(§2) Following whole body imaging, animals were dissected and selected tissues (heart, lung, liver, spleen, kidneys, stomach, small intestine, large intestine, muscle, skin, tumor) were analyzed for fluorescence activity using IVIS imager as before. Settings for imaging: lamp level: medium; excitation: 745 nm; emission: 830 nm; epi illumination; binning: 4 (M), FOV=12.5; f-stop=2; acquisition time=1 s.
as §1, with “shoulder. Growth of the tumors was measured in perpendicular directions every 2 days using a caliper (body weights were monitored on the same schedule), and the volumes of the tumors were calculated as 0.5×L×W^2 (L=longest axis and W=axis perpendicular to L in millimeters).” for “shoulder.”, “ICG (830 nm);” for “830 nm;”
as §2, with “skin, and” for “skin,”, “imaging:—lamp” for “imaging: lamp”, “emission:ICG (830 nm);” for “emission: 830 nm;”
Five-week-old female nu/nu mice were inoculated subcutaneously with KB cells (1.0×10^6/mouse in RPMI medium) on their shoulders. Growth of the tumors was measured in two perpendicular directions every 2 days using a caliper (body weights were monitored on the same schedule), and the volumes of the tumors were calculated as 0.5×L×W^2 (L) longest axis and W) axis perpendicular to L in millimeters). Once tumors reached between 400 and 500 mm3 in volume, animals were treated with folate receptor-targeted NIR dye conjugate (10 nmol) in phosphate buffered saline (100 μL). […]
Animal imaging experiments were performed using a Caliper Ivis Lumina II Imaging Station with Living Image 4.0 software. Settings for imaging Alexa Fluor 647 and DyLight 680 conjugates: lamp level: high; excitation: 605; emission: Cy5.5; epi illumination; binning: (M) 4; FOV=7.5; f-stop=4; acquisition time=1 s. Settings for imaging DyLight 750 and IR800CW conjugates: lamp level: high; excitation: 745; emission: ICG; epi illumination; binning: (M) 4, FOV=12.5; f-stop=4; acquisition time=1 s.
Seven-week-old female nu/nu mice were inoculated subcutaneously with KB cells (1.0×10^6/mouse in folate free RPM11640 medium) on the shoulder. Growth of the tumors was measured in perpendicular directions every 2 days using a caliper (body weights were monitored on the same schedule), and the volumes of the tumors were calculated as 0.5×L×W^2 (L=longest axis and W=axis perpendicular to L in millimeters). Once tumors reached between 400 and 500 mm3 in volume, animals (5 mice/group) were intravenously injected with 10 nmol of OTL-0038 or OTL-0039 in phosphate buffered saline (100 μL). After 2.5 hours, animals were euthanized by CO2 asphyxiation. Whole body imaging (intact tumor) experiments were then performed using a Caliper IVIS Lumina II Imaging Station with Living Image 4.0 software (PerkinElmer Inc, MA). […]

[3] = 10 nmol i.v., 2 h, listed as OTL38
[4] = 10 nmol i.v., 2 h, listed as Pte-Tyr-S0456
[5] = 10 nmol tail vein, live imaging
[6] = dose escalation 0.3-90 nmol i.v.

Compound: CC1(C)C(/C=C/C2=C(Oc3ccc(C[C@H](NC(=O)c4ccc(NCc5cnc6nc(N)[nH]c(=O)c6n5)cc4)C(=O)[O-])cc3)C(=C/C=C3\N(CCCCS(=O)(=O)[O-])c4ccc(S(=O)(=O)[O-])cc4C3(C)C)/CCC2)=[N+](CCCCS(=O)(=O)[O-])c2ccc(S(=O)(=O)[O-])cc21.[H+].[H+].[H+].[H+] [OTL-0038, Pte-Tyr-S0456]
- ex-vivo tissue biodistribution [1]: highest fluorescence intensities were observed in FR-positive tumors and kidneys
- tumor-to-normal tissue ratios [1]: excellent tumor-to-normal tissue ratios
- whole body imaging: accumulation [1]: accumulated mainly in the FR-positive IGROV tumor xenografts
- tumor uptake [2]: lower uptake in folate receptor-positive tumors (weak fluorescence intensity)
- tumor uptake ([2]; listed as OTL38): lower uptake in FR-positive tumors (weak fluorescence intensity)
- whole body imaging, tissue biodistribution and tumor-to-tissue ([2]; 2 nmol dose, 2 h post injection): excellent
- time in which nonspecific skin tissue uptake clears ([2]; 10 nmol): ≤ 24 h
- tumor fluorescence intensity, direct comparison ([2]; 10 nmol i.v., 2 h): brighter than the mice treated with the other conjugates
- tumor-to-tissue ratios ([2]; 10 nmol i.v., 2 h): excellent tumor-to-tissue ratios except the skin
- whole body imaging: accumulation ([2]; 10 nmol i.v., 2 h): accumulated predominantly in the folate receptor-positive tumors
- ex vivo tissue biodistribution [2, 3]: highest fluorescence intensity was observed in FR-positive tumors with no accumulation in the other tissues except the kidneys and skin
- whole body imaging: accumulation [2, 3]: accumulated predominantly in the FR positive KB tumors
- ex vivo tissue biodistribution [2, 4]: accumulated predominantly in the folate receptor positive tumors with no substantial fluorescence activity in other organs except the kidneys
- tumor fluorescence intensity, direct comparison [2, 4]: competitive, in terms of fluorescent brightness, to all folate-NIR conjugates
- whole body imaging: accumulation [2, 4]: mainly accumulated in the folate receptor positive tumors and no fluorescence was observed in other tissues
- ex vivo tissue biodistribution ([2]; 10 nmol i.v., 2.5 h): highest fluorescence intensity was observed in FR-positive tumors with no accumulation in the other tissues except the kidneys; also recorded: mainly accumulated in folate receptor positive tumor xenografts and kidneys
- tumor fluorescence intensity, direct comparison ([2]; 10 nmol i.v., 2.5 h): brighter (higher); also recorded: beneficial aspects relative to folate-LS288, folate-IR800, and folate-ZW800 in tumor accumulated fluorescence intensity
- tumor-to-normal tissue fluorescence ratios ([2]; 10 nmol i.v., 2.5 h): excellent tumor-to-normal tissue fluorescence ratios
- whole body imaging: accumulation ([2]; 10 nmol i.v., 2.5 h): accumulated predominantly in the folate receptor positive tumors
- time point at which clearing from the skin starts [2, 5]: 2 h
- time to saturate FR [2, 5]: 2 to 4 h
- time to accumulate in FR positive tumor and kidneys ([2]; 10 nmol tail vein, live imaging 15 min to 48 h): ≤ 1 h
- skin fluorescence ([2]; 10 nmol, 24-48 hour time points): minimal fluorescence
- uptake in sliced (dissected) tumors ([2]; 10 nmol, 2 h): accumulated homogeneously in all tumor cells
- fluorescence intensity in the skin ([2]; 10 nmol, 24 h post injection, ImageJ): minimal
- fluorescence in tumor ([2]; 10 nmol, 48 hour time point): remains high
- non-specific uptake [2]: higher non-specific uptake
- non-specific uptake ([2]; listed as OTL38): higher non-specific uptake in healthy tissues
- highest dose to obtain best tumor-to-background ratio [2, 6]: 30 nmol
- lowest dose to obtain good tumor-to-background ratio [2, 6]: 1.0 nmol
- kidney uptake ([2]; dose range 0.3-10 nmol): higher kidney uptake
- tumor uptake and tumor-to-normal tissue ratio ([2]; dose range 1.0-30.0 nmol i.v.): tumor uptake and excellent tumor-to-normal tissue ratio
- kidney uptake ([2]; dose range 30-90 nmol): less kidney uptake (relative to tumor uptake)
